Measured values taken from patent US20130149701A1, “METHODS OF IDENTIFYING THERAPEUTIC AGENTS FOR TREATING PERSISTER AND BACTERIAL INFECTION” (priority 2010, published 2013).
In brackets after ≈: the same amount, converted by molar mass. Entries after “also recorded” stand apart in the source; their conditions may differ.

Tests used:
[1] = molecular target: T1, Endonuclease IV (Rv0670) (Mycobacterium tuberculosis, UniProt P9WQ13); assay type: biochemical, M. tuberculosis
[2] = molecular target: T1, Endonuclease IV (Rv0670); test: Endonuclease IV (Rv0670) activity on oligonucleotides with AP, U or H lesions; assay type: biochemical, M. tuberculosis; details: oligos with AP, U or H lesion; POA 2, 4, 8, 16, 25 and 34 mM; INH and PZA 25 mM
[3] = molecular target: T2, wild type M. tuberculosis RpsA binding to tmRNA (Mycobacterium tuberculosis, UniProt P9WH43); details: for effect on tmRNA binding to wild type RpsA: FIG. 5A, POA Lanes 2-7, PZA (200 g/ml), INH (1 g/ml)
T2 sequence (P9WH43 1-481): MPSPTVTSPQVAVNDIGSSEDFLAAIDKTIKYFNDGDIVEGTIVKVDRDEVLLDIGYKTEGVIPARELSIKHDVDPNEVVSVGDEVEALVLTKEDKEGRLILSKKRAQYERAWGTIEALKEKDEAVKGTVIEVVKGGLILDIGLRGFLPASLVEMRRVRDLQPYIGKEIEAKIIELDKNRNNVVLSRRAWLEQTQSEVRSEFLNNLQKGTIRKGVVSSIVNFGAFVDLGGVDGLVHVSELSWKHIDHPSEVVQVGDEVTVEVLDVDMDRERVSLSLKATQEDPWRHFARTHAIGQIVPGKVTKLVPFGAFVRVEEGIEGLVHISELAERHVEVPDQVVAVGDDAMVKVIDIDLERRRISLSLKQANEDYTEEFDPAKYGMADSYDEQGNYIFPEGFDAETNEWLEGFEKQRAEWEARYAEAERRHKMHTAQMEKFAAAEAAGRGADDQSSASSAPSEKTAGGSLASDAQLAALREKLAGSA

[4] = molecular target: M. tuberculosis H37Rv RpsA (WT) (Mycobacterium tuberculosis, UniProt P9WH43); test: biochemical; assay type: binding
[5] = molecular target: ribosome from M. smegmatis (trans-translation) (Mycolicibacterium smegmatis, UniProt A0QYY6); assay type: biochemical
[6] = molecular target: M. tuberculosis ribosome (canonical translation) (Mycobacterium tuberculosis, UniProt P9WH43); assay type: biochemical
[7] = molecular target: M. tuberculosis ribosome, tmRNA and SmpB (trans-translation) (Mycobacterium tuberculosis, UniProt P9WH43); assay type: biochemical
[8] = test system: M. tuberculosis; test: MIC of POA as stated in the text; assay type: cell-based; details: Mycobacterium tuberculosis, read-out: MIC concentration
[9] = molecular target: T3, M. smegmatis RpsA (Mycolicibacterium smegmatis, UniProt A0QYY6); assay type: binding; details: 10 μM RpsA titrated with 100 μM POA
T3 construct: made in house
T3 sequence (A0QYY6 1-479): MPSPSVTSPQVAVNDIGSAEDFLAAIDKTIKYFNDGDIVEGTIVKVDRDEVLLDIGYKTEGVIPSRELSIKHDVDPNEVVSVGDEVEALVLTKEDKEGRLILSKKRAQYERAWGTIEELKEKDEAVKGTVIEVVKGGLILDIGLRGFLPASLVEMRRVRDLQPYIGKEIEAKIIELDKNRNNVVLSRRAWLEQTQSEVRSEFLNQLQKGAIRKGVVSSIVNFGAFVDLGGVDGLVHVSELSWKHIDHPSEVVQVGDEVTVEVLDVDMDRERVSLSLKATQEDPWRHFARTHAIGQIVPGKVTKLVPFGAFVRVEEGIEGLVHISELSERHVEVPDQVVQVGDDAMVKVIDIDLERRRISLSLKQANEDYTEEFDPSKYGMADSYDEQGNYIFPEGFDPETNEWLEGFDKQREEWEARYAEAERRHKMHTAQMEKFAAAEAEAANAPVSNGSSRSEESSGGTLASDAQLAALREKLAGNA

[10] = test system: M. tuberculosis cell lysates; assay type: binding
[11] = molecular target: ribosome from E. coli (trans-translation) (Escherichia coli, UniProt P0AG67); assay type: biochemical
[12] = test system: Mtb clinical isolate DHM444 / H37Rv; test: microbe, parasite or virus in culture; assay type: cell-based, M. tuberculosis; details: Mycobacterium tuberculosis, PZA, sensitive control strain H37Rv

T1 sequence (P9WQ13 whole entry): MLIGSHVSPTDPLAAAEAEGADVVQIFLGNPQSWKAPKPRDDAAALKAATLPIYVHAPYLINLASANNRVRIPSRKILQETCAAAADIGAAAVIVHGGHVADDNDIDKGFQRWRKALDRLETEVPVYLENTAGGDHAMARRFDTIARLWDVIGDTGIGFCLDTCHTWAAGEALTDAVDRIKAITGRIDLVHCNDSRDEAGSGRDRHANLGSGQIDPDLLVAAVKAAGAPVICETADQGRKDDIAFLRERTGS

NNC(=O)c1ccncc1 [INH, isoniazid]
inhibition of Rv0670 (Endo IV/V) activity [1]: no inhibition and not
inhibition of Rv0670 endonuclease activity [2]: did not inhibit
effect on tmRNA binding to wild type RpsA [3]: no effect; also recorded: not affected

O=C(O)c1cnccn1 [POA, 2-pyrazinecarboxylic acid]
binding to wild type RpsA (ITC) [4]: bound; also recorded: specifically bind
ΔS (ITC) ([4]; pH 7.4): 27.6 cal·mol^−1·K^−1
Kd ([4]; read-out: K (binding constant, ITC)): 133 nM
inhibition of trans-translation [5]: nor did it inhibit; also recorded: did not inhibit
effect on conventional protein synthesis (canonical translation) [6]: no effect; also recorded: did not inhibit
effect on translation of the normal DHFR gene [6]: did not affect
concentration inhibiting trans-translation of DHFR with the rare codon cluster [7]: ≥ 25 µg/mL
inhibition of trans-translation of the DHFR product [7]: inhibited
trans-translation product DHFR [7]: still present
inhibition of trans-translation, densitometry of band intensities ([7]; n=5): Concentration-dependent inhibition
inhibition of Rv0670 (Endo IV/V) activity [1]: inhibited the activity of Rv0670 (Endo IV/V) completely
reversibility of Endo IV/V inhibition ([1]; dilution or dialysis): irreversibly
inhibition of Rv0670 endonuclease activity [2]: inhibited Rv0670 activity specifically in a dose dependent manner; also recorded: specific inhibition
MIC [8]: 50 µg/mL
binding to M. smegmatis RpsA (ITC) [9]: only weakly; also recorded: only very weakly
effect on tmRNA binding to wild type RpsA [3]: Concentration-dependent inhibition
inhibition of wild type Mtb RpsA binding to tmRNA ([3]; POA at its MIC concentration of 50 μg/ml): inhibited
proteins bound to POA identified by Mass Spectrometry ([10]; Examples 8-16, columns with 5-hydroxyl- and 6-hydroxyl-2-pyrazinecarboxylic acid): 9 proteins
proteins that bound to POA ([10]; M. tuberculosis cell lysates, column with 5-hydroxyl-2-pyrazinecarboxylic acid, FIG. 1): several proteins
major POA binding protein ([10]; POA-linked column, mass spectrometry): RpsA
inhibition of trans-translation [11]: nor did it inhibit; also recorded: did not inhibit

NC(=O)c1cnccn1 [PZA, Pyrazinamide]
binding to wild type RpsA (ITC) [4]: did not bind
MIC [12]: 100 µg/mL (≈ 812 µM)
inhibition of Rv0670 (Endo IV/V) activity [1]: no inhibition and not
inhibition of Rv0670 endonuclease activity [2]: did not inhibit
effect on tmRNA binding to wild type RpsA [3]: no effect; also recorded: not affected

O=C(O)c1cccnc1 [nicotinic acid]
inhibition of trans-translation [7]: did not inhibit
